According to ChEMBL document CHEMBL4706653, “Ultra-short lipopeptides against gram-positive bacteria while alleviating antimicrobial resistance” (Eur J Med Chem, 2021):
In brackets after ≈: the same amount, converted by molar mass. Activity calls are given as the source filed them. The calls are words filed in the database; no cut-off is given here. Residues, ends and D or L forms follow the SMILES beside them. *: point of attachment. Myristoyl = CCCCCCCCCCCCCC(=O)*; Lauroyl = CCCCCCCCCCCC(=O)*

Legend:
Staphylococcus aureus [1] = test: Potentiation of EtBr-induced antimicrobial activity against ciprofloxacin-resistant Staphylococcus aureus ATCC 25923 at 1 to 2 uM after 18 hrs by broth microdilution method; format: functional, organism-based; settings: dose 1-2 µM
Staphylococcus aureus [2] = test: Antimicrobial activity against ciprofloxacin-resistant Staphylococcus aureus ATCC 25923 after 18 hrs in presence of polymyxin B by checkerboard assay; format: functional, organism-based
Staphylococcus aureus [3] = test: Antibiofilm activity against Staphylococcus aureus ATCC 25923 assessed as biofilm thickness at 8 uM after 24 hrs using LIVE/LEAD (SYTO-9/PI) staining by confocal laser scanning microscopy based 3D image analysis (reference value: 55 micrometer); format: functional
Staphylococcus aureus [4] = test: Antimicrobial activity against Staphylococcus aureus ATCC 25923 at 0.5 times MIC after 15 passages by broth microdilution method; format: functional, organism-based
[5] = Binding affinity to LTA (unknown origin) assessed as bacterial killing at 2 times MIC preincubated for 1 hr followed by Staphylococcus aureus ATCC 25923 addition and measured after 2 hrs by colony counting method; settings: time 3.0 hrs
Staphylococcus aureus [6] = test: Antimicrobial activity against Staphylococcus aureus ATCC 25923 after 18 hrs in presence of NaCl by broth microdilution method; format: functional
Staphylococcus aureus [7] = test: Ratio of MIC for antimicrobial activity against Staphylococcus aureus ATCC 25923 in presence of 5% serum to MIC for antimicrobial activity against Staphylococcus aureus ATCC 25923 in absence of serum; format: functional
Staphylococcus aureus [8] = test: Induction of reactive oxygen species generation in Staphylococcus aureus ATCC 25923 by […] dye based fluorescence assay; format: functional, organism-based
Staphylococcus aureus [9] = test: Antimicrobial activity against Staphylococcus aureus ATCC 25923 after 18 hrs in presence of CaCl2 by broth microdilution method; format: functional
Staphylococcus aureus [10] = test: Antimicrobial activity against Staphylococcus aureus ATCC 25923 after 18 hrs in presence of polymyxin B by checkerboard assay; format: functional, organism-based
Staphylococcus aureus [11] = test: Antibiofilm activity against Staphylococcus aureus ATCC 25923 at 0.5 to 8 uM after 24 hrs in presence of ciprofloxacin by checkerboard assay; format: functional, organism-based; settings: dose 0.5-8 µM
[12] = system: Staphylococcus epidermidis; test: Antimicrobial activity against ciprofloxacin-resistant Staphylococcus epidermidis ATCC 12228 at 0.5 times MIC after 15 passages by broth microdilution method; format: functional, organism-based
Staphylococcus aureus [13] = test: Antimicrobial activity against methicillin-resistant Staphylococcus aureus 75 after 18 hrs by broth microdilution method; format: functional
Staphylococcus aureus [14] = test: Antibiofilm activity against Staphylococcus aureus ATCC 25923 at 4 to 8 uM after 24 hrs by LIVE/DEAD (SYTO-9/PI) staining based confocal laser scanning microscopic analysis; format: functional, organism-based; settings: dose 4-8 µM
Cell membrane [15] = test: Induction of membrane disruption in Staphylococcus aureus ATCC 25923 assessed as PI-positive cells at 2 times MIC measured after 2 hrs by propidium iodide staining based flow cytometry relative to control
[16] = system: Staphylococcus epidermidis; test: Potentiation of ciprofloxacin-induced antimicrobial activity against ciprofloxacin-resistant Staphylococcus epidermidis ATCC 12228 assessed as change in ciprofloxacin MIC at 2 uM after 18 hrs by broth microdilution method relative to ciprofloxacin MIC; format: functional
Staphylococcus aureus [17] = test: Antibiofilm activity against ciprofloxacin-resistant Staphylococcus aureus ATCC 25923 at 0.5 to 8 uM after 24 hrs by crystal violet staining based assay; format: functional, organism-based; settings: dose 0.5-8 µM
[18] = Therapeutic index, ratio of MHC for mouse RBC to geometric mean of peptide MIC for Staphylococcus epidermidis ATCC 12228; format: toxicity; settings: pooled result: one value given for 6 cell lines, strains, targets or settings, read-out: TI
Erythrocyte = test: Hemolytic activity against mouse erythrocytes measured after 1 hr; format: ADME, cell-based
Cell membrane [19] = test: Induction of membrane disruption in Staphylococcus aureus ATCC 25923 assessed as appearance of rough membrane at 2 to 4 times MIC measured after 2 to 4 hrs by SEM analysis; format: subcellular; settings: time 2-4 hrs
Staphylococcus aureus [20] = test: Antibiofilm activity against Staphylococcus aureus ATCC 25923 at 0.5 to 8 uM after 24 hrs by crystal violet staining based assay; format: functional, organism-based; settings: dose 0.5-8 µM
Staphylococcus aureus [21] = test: Potentiation of ciprofloxacin-induced antimicrobial activity against ciprofloxacin-resistant Staphylococcus aureus ATCC 25923 assessed as ciprofloxacin MIC at 0.5 times MIC after 15 passages by broth microdilution method; format: functional
[22] = system: Staphylococcus epidermidis; test: Antimicrobial activity against Staphylococcus epidermidis ATCC 12228 after 18 hrs by broth microdilution method; format: functional
Staphylococcus aureus [23] = test: Antibiofilm activity against Staphylococcus aureus ATCC 25923 preformed biofilm at 32 to 64 uM after 24 hrs by LIVE/DEAD (SYTO-9/PI) staining based confocal laser scanning microscopic analysis; format: functional, organism-based; settings: dose 32-64 µM
Cell membrane [24] = test: Induction of membrane disruption in Staphylococcus aureus ATCC 25923 assessed as cell lysis at 4 times MIC measured after 2 to 4 hrs by SEM analysis; format: subcellular; settings: time 2-4 hrs
Staphylococcus aureus [25] = test: Antimicrobial activity against ciprofloxacin-resistant Staphylococcus aureus ATCC 25923 at 0.5 to 8 uM measured after 18 hrs in presence of ciprofloxacin by checkerboard assay; format: functional, organism-based; settings: dose 0.5-8 µM
Cell membrane [26] = test: Induction of membrane disruption in Staphylococcus aureus ATCC 25923 assessed as membrane blebbing at 2 to 4 times MIC measured after 2 to 4 hrs by SEM analysis; format: subcellular; settings: time 2-4 hrs
Staphylococcus aureus [27] = test: Antibiofilm activity against Staphylococcus aureus ATCC 25923 preformed biofilm assessed as preformed biofilm thickness at 32 uM after 24 hrs using LIVE/LEAD (SYTO-9/PI) staining by confocal laser scanning microscopy based 3D image analysis (reference value: 56 micrometer); format: functional
Cell membrane [28] = test: Induction of membrane disruption in Staphylococcus aureus ATCC 25923 assessed as formation of dent at 2 to 4 times MIC measured after 2 to 4 hrs by SEM analysis; format: subcellular; settings: time 2-4 hrs
Staphylococcus aureus [29] = test: Ratio of MIC for antimicrobial activity against Staphylococcus aureus ATCC 25923 in presence of 10% serum to MIC for antimicrobial activity against Staphylococcus aureus ATCC 25923 in absence of serum; format: functional
Staphylococcus aureus [30] = test: Antimicrobial activity against ciprofloxacin-resistant Staphylococcus aureus ATCC 25923 at 0.5 to 8 uM measured after 18 hrs in presence of EtBr by checkerboard assay; format: functional, organism-based; settings: dose 0.5-8 µM
Staphylococcus aureus [31] = test: Potentiation of ciprofloxacin-induced antimicrobial activity against methicillin-resistant Staphylococcus aureus 75 assessed as change in ciprofloxacin MIC at 2 uM after 18 hrs by broth microdilution method relative to ciprofloxacin MIC; format: functional
Staphylococcus aureus [32] = test: Potentiation of ciprofloxacin-induced antimicrobial activity against methicillin-resistant Staphylococcus aureus 75 at 0.5 uM after 18 hrs by broth microdilution method; format: functional, organism-based
Staphylococcus aureus [33] = test: Antimicrobial activity against methicillin-resistant Staphylococcus aureus 113 after 18 hrs by broth microdilution method; format: functional
Staphylococcus aureus [34] = test: Antimicrobial activity against Staphylococcus aureus ATCC 25923 after 18 hrs in presence of 2.5% serum by broth microdilution method; format: functional
Staphylococcus aureus [35] = test: Antibiofilm activity against Staphylococcus aureus ATCC 25923 preformed biofilm assessed as reduction in preformed biofilm thickness after 24 hrs using LIVE/LEAD (SYTO-9/PI) staining by confocal laser scanning microscopy based 3D image analysis; format: functional, organism-based; settings: dose 32-64 µM
[36] = system: Staphylococcus epidermidis; test: Antimicrobial activity against Staphylococcus epidermidis ATCC 12228 at 0.5 times MIC after 15 passages by broth microdilution method; format: functional, organism-based
[37] = system: Staphylococcus epidermidis; test: Antimicrobial activity against Staphylococcus epidermidis ATCC 12228 after 18 hrs in presence of polymyxin B by checkerboard assay; format: functional, organism-based

Structure (SMILES)	Activity (Staphylococcus aureus [1])	Activity (Staphylococcus aureus [2])	Activity (Staphylococcus aureus [3])	Activity (Staphylococcus aureus [4])	Activity [5]	MIC (Staphylococcus aureus [6])	Ratio (Staphylococcus aureus [7])	Activity (Staphylococcus aureus [8])	MIC (Staphylococcus aureus [9])	Activity (Staphylococcus aureus [10])	Activity (Staphylococcus aureus [11])	Activity [12]	MIC (Staphylococcus aureus [13])	Activity (Staphylococcus aureus [14])	Activity (Cell membrane [15])	fold change (FC) [16]	Activity (Staphylococcus aureus [17])	selectivity ratio [18]	MHC10 (Erythrocyte)	Activity (Cell membrane [19])	further results
CCCCCCCCCCCC(=O)N[C@@H](CCCNC(=N)N)C(=O)N[C@@H](CCCNC(=N)N)C(=O)N[C@@H](Cc1c[nH]c2ccccc12)C(N)=O (Lauroyl-Arg-Arg-Trp-NH2)	Active	Active	20 um	Active	Active	16 µM	8	Active	16 µM	Active	inactive	Active	4 µM (≈ 2.79 µg/mL)	Active	44.3%	2	Active	34.9	128 µM	Active	Activity (Staphylococcus aureus [20]): Active; MIC (Staphylococcus aureus [21]): 8 µM; MIC [22]: 4 µM (≈ 2.79 µg/mL); Activity (Staphylococcus aureus [23]): Active; Activity (Cell membrane [24]): Active; Activity (Staphylococcus aureus [25]): Active; Activity (Cell membrane [26]): Active; Activity (Staphylococcus aureus [27]): 30 um; Activity (Cell membrane [28]): Active; Ratio (Staphylococcus aureus [29]): 8; Activity (Staphylococcus aureus [30]): Active; fold change (FC) (Staphylococcus aureus [31]): 2; Activity (Staphylococcus aureus [32]): inactive; MIC (Staphylococcus aureus [33]): 2 µM (≈ 1.4 µg/mL); MIC (Staphylococcus aureus [34]): 32 µM; Activity (Staphylococcus aureus [35]): Dose-dependent effect; Activity [36]: Active; Activity [37]: Active
CCCCCCCCCCCCCC(=O)N[C@@H](CCCNC(=N)N)C(=O)N[C@@H](Cc1c[nH]c2ccccc12)C(=O)N[C@@H](Cc1c[nH]c2ccccc12)C(N)=O (Myristoyl-Arg-Trp-Trp-NH2)	Active	Active	16 um	Active	Active	8 µM	2	Active	8 µM	Active	inactive	Active	4 µM (≈ 3.02 µg/mL)	Active	74.8%	2	Active	56.9	> 256 µM	Active	Activity (Staphylococcus aureus [20]): Active; MIC (Staphylococcus aureus [21]): 8 µM; MIC [22]: 16 µM (≈ 12.1 µg/mL); Activity (Staphylococcus aureus [23]): Active; Activity (Cell membrane [24]): Active; Activity (Staphylococcus aureus [25]): Active; Activity (Cell membrane [26]): Active; Activity (Staphylococcus aureus [27]): 40 um; Activity (Cell membrane [28]): Active; Ratio (Staphylococcus aureus [29]): 2; Activity (Staphylococcus aureus [30]): Active; fold change (FC) (Staphylococcus aureus [31]): 2; Activity (Staphylococcus aureus [32]): inactive; MIC (Staphylococcus aureus [33]): 4 µM (≈ 3.02 µg/mL); MIC (Staphylococcus aureus [34]): 8 µM; Activity (Staphylococcus aureus [35]): Dose-dependent effect; Activity [36]: Active; Activity [37]: Active
